Experimental data taken from PubChem BioAssay AID1963974 (Molecular Pharmacology Branch, DTP, NCI, 2024).

Tested on: 648629-189-R-J1-PDC spheroids with HUVEC/MSC, viability
Assay: Anticancer human tumor 648629-189-R-J1-PDC patient-derived bladder carcinoma cell line growth inhibition [PI3K]
Conditions: for IC50: curve of first compound; for viability, T/C: stronger effect = lower value; active means viability on the fitted dose curve at most 10% of control; inactive means the rest
Summary of the method: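 Targeted small molecules plus PI3K inhibitors, half-log dose series from Cmax (default top 10 microM), were applied to heterotypic spheroids of cancer cells with HUVEC and MSCs. Viability indicated growth inhibition.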

[1] = second compound 0.00316 µM, first compound 0.0316 µM
[2] = second compound 0.00316 µM, first compound 0.1 µM
[3] = second compound 0.00316 µM, first compound 0.316 µM
[4] = second compound 0.00316 µM, first compound 1 µM
[5] = second compound 0.00316 µM, first compound 3.16 µM
[6] = second compound 0.00316 µM, first compound 10 µM
[7] = second compound 0.01 µM, first compound 0.0316 µM
[8] = second compound 0.01 µM, first compound 0.1 µM
[9] = second compound 0.01 µM, first compound 0.316 µM
[10] = second compound 0.01 µM, first compound 1 µM
[11] = second compound 0.01 µM, first compound 3.16 µM
[12] = second compound 0.01 µM, first compound 10 µM
[13] = second compound 0.0316 µM, first compound 0.0316 µM
[14] = second compound 0.0316 µM, first compound 0.1 µM
[15] = second compound 0.0316 µM, first compound 0.316 µM
[16] = second compound 0.0316 µM, first compound 1 µM
[17] = second compound 0.0316 µM, first compound 3.16 µM
[18] = second compound 0.0316 µM, first compound 10 µM
[19] = second compound 0.1 µM, first compound 0.0316 µM
[20] = second compound 0.1 µM, first compound 0.1 µM
[21] = second compound 0.1 µM, first compound 0.316 µM
[22] = second compound 0.1 µM, first compound 1 µM
[23] = second compound 0.1 µM, first compound 3.16 µM
[24] = second compound 0.1 µM, first compound 10 µM
[25] = second compound 0.316 µM, first compound 0.0316 µM
[26] = second compound 0.316 µM, first compound 0.1 µM
[27] = second compound 0.316 µM, first compound 0.316 µM
[28] = second compound 0.316 µM, first compound 1 µM
[29] = second compound 0.316 µM, first compound 3.16 µM
[30] = second compound 0.316 µM, first compound 10 µM
[31] = second compound 1 µM, first compound 0.0316 µM
[32] = second compound 1 µM, first compound 0.1 µM
[33] = second compound 1 µM, first compound 0.316 µM
[34] = second compound 1 µM, first compound 1 µM
[35] = second compound 1 µM, first compound 3.16 µM
[36] = second compound 1 µM, first compound 10 µM
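Further: spheroids exposed to agents for seven days before reading.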
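Wherever viability, T/C is given: percent of vehicle control luminescence where 100% = DMSO treated spheroids.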

CC1(C)CCC(CN2CCN(c3ccc(C(=O)NS(=O)(=O)c4ccc(NCC5CCOCC5)c([N+](=O)[O-])c4)c(Oc4cnc5[nH]ccc5c4)c3)CC2)=C(c2ccc(Cl)cc2)C1 + CC(Nc1ccc2c(c1)OCCn1cc(N3C(=O)OCC3C(F)F)nc1-2)C(N)=O
4.45 µM: IC50 (second compound 0.316 µM)
4.77 µM: IC50 (second compound 0.00316 µM)
active: viability, T/C [6] 8.54% | viability, T/C [12] 7.49% | viability, T/C [24] 7.86% | viability, T/C [30] 7.9% | viability, T/C [36] 8.61%
5.28 µM: IC50 (second compound 0.1 µM)
4.84 µM: IC50 (second compound 0.01 µM)
4.34 µM: IC50 (second compound 1 µM)
inactive: viability, T/C [1] 101% | viability, T/C [2] 90.9% | viability, T/C [3] 92.9% | viability, T/C [4] 80.7% | viability, T/C [5] 76.7% | viability, T/C [7] 122% | viability, T/C [8] 88.3% | viability, T/C [9] 106% | viability, T/C [10] 86% | viability, T/C [11] 80.7% | viability, T/C [13] 110% | viability, T/C [14] 102% | viability, T/C [15] 98.2% | viability, T/C [16] 89.5% | viability, T/C [17] 71.3% | viability, T/C [18] 9.16% | viability, T/C [19] 84.5% | viability, T/C [20] 99.8% | viability, T/C [21] 90.5% | viability, T/C [22] 95.6% | viability, T/C [23] 83.8% | viability, T/C [25] 74.7% | viability, T/C [26] 76% | viability, T/C [27] 79.4% | viability, T/C [28] 77.6% | viability, T/C [29] 67.5% | viability, T/C [31] 74.2% | viability, T/C [32] 63.4% | viability, T/C [33] 62.5% | viability, T/C [34] 67.3% | viability, T/C [35] 65.7%
4.55 µM: IC50 (second compound 0.0316 µM)

CC1(C)CCC(Nc2ncc(C(F)(F)F)c(-c3c[nH]c4c(P(C)(C)=O)c(C#N)ccc34)n2)CN1 (stereo unspecified) + CC(Nc1ccc2c(c1)OCCn1cc(N3C(=O)OCC3C(F)F)nc1-2)C(N)=O
inactive: viability, T/C [1] 27.7% | viability, T/C [2] 27.2% | viability, T/C [3] 26.8% | viability, T/C [4] 35.4% | viability, T/C [5] 38.7% | viability, T/C [6] 2.42% | viability, T/C [7] 25.3% | viability, T/C [8] 25.8% | viability, T/C [9] 26.3% | viability, T/C [10] 31.1% | viability, T/C [11] 38.2% | viability, T/C [12] 3.09% | viability, T/C [13] 26.6% | viability, T/C [14] 23.4% | viability, T/C [15] 26.6% | viability, T/C [16] 28.5% | viability, T/C [17] 37.6% | viability, T/C [18] 3% | viability, T/C [19] 24.1% | viability, T/C [20] 23.4% | viability, T/C [21] 26.1% | viability, T/C [22] 23.4% | viability, T/C [23] 33.1% | viability, T/C [24] 2.67% | viability, T/C [25] 23.4% | viability, T/C [26] 25.8% | viability, T/C [27] 23.8% | viability, T/C [28] 28.9% | viability, T/C [29] 29.8% | viability, T/C [30] 2.95% | viability, T/C [31] 19.8% | viability, T/C [32] 22.6% | viability, T/C [33] 26.1% | viability, T/C [34] 23.1% | viability, T/C [35] 27.2% | viability, T/C [36] 1.52%
< 0.0316 µM: IC50 (second compound 0.00316 µM) | IC50 (second compound 0.01 µM) | IC50 (second compound 0.0316 µM) | IC50 (second compound 0.1 µM) | IC50 (second compound 0.316 µM) | IC50 (second compound 1 µM)

CC1(C)CCC(CN2CCN(c3ccc(C(=O)NS(=O)(=O)c4ccc(NCC5CCOCC5)c([N+](=O)[O-])c4)c(Oc4cnc5[nH]ccc5c4)c3)CC2)=C(c2ccc(Cl)cc2)C1 + Cc1nc(NC(=O)N2CCCC2C(N)=O)sc1-c1ccnc(C(C)(C)C(F)(F)F)c1
< 0.0316 µM: IC50 (second compound 10 µM)
inactive: viability, T/C [13] 122% | viability, T/C [14] 100% | viability, T/C [15] 102% | viability, T/C [16] 91.6% | viability, T/C [17] 78.4% | viability, T/C [18] 9.8% | viability, T/C [19] 106% | viability, T/C [20] 102% | viability, T/C [21] 106% | viability, T/C [22] 94.9% | viability, T/C [23] 71.6% | viability, T/C [25] 98.3% | viability, T/C [26] 85.1% | viability, T/C [27] 92.2% | viability, T/C [28] 84.4% | viability, T/C [29] 72.5% | viability, T/C [31] 83.8% | viability, T/C [32] 78.1% | viability, T/C [33] 74.3% | viability, T/C [34] 78.5% | viability, T/C [35] 73.2% | viability, T/C (second compound 3.16 µM, first compound 0.0316 µM) 61.2% | viability, T/C (second compound 3.16 µM, first compound 0.1 µM) 57% | viability, T/C (second compound 3.16 µM, first compound 0.316 µM) 58.3% | viability, T/C (second compound 3.16 µM, first compound 1 µM) 57.9% | viability, T/C (second compound 3.16 µM, first compound 3.16 µM) 56% | viability, T/C (second compound 3.16 µM, first compound 10 µM) 12.8% | viability, T/C (second compound 10 µM, first compound 0.0316 µM) 43.5% | viability, T/C (second compound 10 µM, first compound 0.1 µM) 37.1% | viability, T/C (second compound 10 µM, first compound 0.316 µM) 40.1% | viability, T/C (second compound 10 µM, first compound 1 µM) 38.3% | viability, T/C (second compound 10 µM, first compound 3.16 µM) 43.1% | viability, T/C (second compound 10 µM, first compound 10 µM) 7.34%
4.72 µM: IC50 (second compound 0.316 µM)
3.71 µM: IC50 (second compound 3.16 µM)
active: viability, T/C [24] 9.33% | viability, T/C [30] 9.78% | viability, T/C [36] 6.85%
4.85 µM: IC50 (second compound 0.0316 µM)
4.73 µM: IC50 (second compound 1 µM)
4.71 µM: IC50 (second compound 0.1 µM)
